This assay deals with CD2F1 mice, L1210 leukemia ip, survival T/C. The assay can be described thus: NCI In Vivo Anticancer Drug Screen. Data for tumor model L1210 Leukemia (intraperitoneal) in CD2F1 (CDF1) mice. The conditions noted are these: higher = longer survival. A digest of the protocol: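 Read-out first: treated-group measurement over vehicle-control measurement, expressed as a ratio. Animals bore a transplanted tumor line and were dosed with compound or vehicle.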

The mark [1] stands for this setting: endpoint: mean survival time, dose: 100.0 mg/kg/injection, schedule: Q01DX009 (ip), vehicle: saline with Tween-80.
Where [2] appears, read: endpoint: mean survival time, dose: 200.0 mg/kg/injection, schedule: Q01DX009 (ip), vehicle: saline with Tween-80.
Where [3] appears, read: endpoint: mean survival time, dose: 12.5 mg/kg/injection, schedule: Q04DX003 (ip), vehicle: saline with Tween-80.
The mark [4] stands for this setting: endpoint: mean survival time, dose: 25.0 mg/kg/injection, schedule: Q04DX003 (ip), vehicle: saline with Tween-80.
Setting [5] is: endpoint: mean survival time, dose: 25.0 mg/kg/injection, schedule: Q04DX003 (ip), vehicle: saline.
Where [6] appears, read: endpoint: mean survival time, dose: 75.0 mg/kg/injection, schedule: Q01DX001 (ip), vehicle: saline.
Setting [7] is: endpoint: mean survival time, dose: 150.0 mg/kg/injection, schedule: Q01DX001 (ip), vehicle: saline.
[8] abbreviates: endpoint: mean survival time, dose: 300.0 mg/kg/injection, schedule: Q01DX001 (ip), vehicle: saline.
Where [9] appears, read: endpoint: mean survival time, dose: 100.0 mg/kg/injection, schedule: Q04DX003 (ip), vehicle: saline with Tween-80.
[10] abbreviates: endpoint: mean survival time, dose: 400.0 mg/kg/injection, schedule: Q01DX009 (ip), vehicle: saline with Tween-80.
Setting [11] is: endpoint: mean survival time, dose: 200.0 mg/kg/injection, schedule: Q04DX003 (ip), vehicle: saline with Tween-80.
Setting [12] is: endpoint: mean survival time, dose: 400.0 mg/kg/injection, schedule: Q04DX003 (ip), vehicle: saline with Tween-80.
Where [13] appears, read: endpoint: mean survival time, dose: 100.0 mg/kg/injection, schedule: Q04DX003 (ip), vehicle: saline.

Experimental findings from PubChem BioAssay AID256 (DTP/NCI, 2004) are described below.

Structures are written as SMILES. Several values for one entry are separate records, joined by “and”; a condition that tells them apart may be missing. Equal entries are not always repeated. Inconclusive results and toxic doses are left out.

Turning to `CC1(C)CC1(Br)Br`, the T/C by setting is: (endpoint: mean survival time, dose: 6.25 mg/kg/injection, schedule: Q01DX009 (ip), vehicle: saline with Tween-80) 94 % of control and 112 % of control; (endpoint: mean survival time, dose: 12.5 mg/kg/injection, schedule: Q01DX009 (ip), vehicle: saline with Tween-80) 94 % of control and 106 % of control; (endpoint: mean survival time, dose: 25.0 mg/kg/injection, schedule: Q01DX009 (ip), vehicle: saline with Tween-80) 102 % of control and 112 % of control; (endpoint: mean survival time, dose: 50.0 mg/kg/injection, schedule: Q01DX009 (ip), vehicle: saline with Tween-80) 100 % of control and 110 % of control; under setting [1], 93 % of control and 106 % of control; under setting [2], 97 % of control and 100 % of control.
Turning to `COc1ccc(NC(=O)Oc2c(Cl)cc(Cl)c3ccccc23)cc1`, the T/C runs as follows: (endpoint: mean survival time, dose: 100.0 mg/kg/injection, schedule: Q04DX002 (ip), vehicle: saline with Tween-80) 93 % of control; (endpoint: mean survival time, dose: 200.0 mg/kg/injection, schedule: Q04DX002 (ip), vehicle: saline with Tween-80) 93 % of control; (endpoint: mean survival time, dose: 400.0 mg/kg/injection, schedule: Q04DX002 (ip), vehicle: saline with Tween-80) 101 % of control.
Turning to `CN(C)N=Nc1ccc(Cl)cc1C(=O)O`, the T/C was 114 % of control (endpoint: mean survival time, dose: 266.0 mg/kg/injection, schedule: Q04DX003 (ip), vehicle: other) and 120 % of control (endpoint: mean survival time, dose: 400.0 mg/kg/injection, schedule: Q04DX003 (ip), vehicle: other).
Take `c1ccc(-c2cc3ccccc3c(-c3ccccc3)c2-c2ccccc2)cc1`: the T/C by setting is: (endpoint: mean survival time, dose: 150.0 mg/kg/injection, schedule: Q01DX001 (ip), vehicle: other) 90 % of control; (endpoint: mean survival time, dose: 300.0 mg/kg/injection, schedule: Q01DX001 (ip), vehicle: other) 88 % of control.
In the case of `[Cl][Pt+2][Cl].[NH-]CC1(C[NH-])CCCC1`, the T/C (endpoint: mean survival time, dose: 1.56 mg/kg/injection, schedule: Q04DX003 (ip), vehicle: saline) is 122 % of control; the T/C (endpoint: mean survival time, dose: 3.12 mg/kg/injection, schedule: Q04DX003 (ip), vehicle: saline) is 152 % of control; the T/C (endpoint: mean survival time, dose: 6.25 mg/kg/injection, schedule: Q04DX003 (ip), vehicle: saline) was 197 % of control; the T/C under setting [3] was 160 % of control; the T/C (endpoint: mean survival time, dose: 12.5 mg/kg/injection, schedule: Q04DX003 (ip), vehicle: saline) is 260 % of control; the T/C under setting [4] is 98 % of control. The T/C runs as follows: under setting [5], 114 % of control; (endpoint: median survival time, dose: 1.0 mg/kg/injection, schedule: Q01DX009 (ip), vehicle: saline) 232 % of control; (endpoint: median survival time, dose: 2.0 mg/kg/injection, schedule: Q01DX009 (ip), vehicle: saline) 175 % of control; (endpoint: median survival time, dose: 4.0 mg/kg/injection, schedule: Q01DX001 (ip), vehicle: saline) 201 % of control; (endpoint: median survival time, dose: 4.0 mg/kg/injection, schedule: Q01DX009 (ip), vehicle: saline) 101 % of control; (endpoint: median survival time, dose: 8.0 mg/kg/injection, schedule: Q01DX001 (ip), vehicle: saline) 200 % of control. In addition, the T/C is, setting by setting: (endpoint: median survival time, dose: 8.0 mg/kg/injection, schedule: Q01DX009 (ip), vehicle: saline) 97 % of control; (endpoint: median survival time, dose: 12.0 mg/kg/injection, schedule: Q01DX001 (ip), vehicle: saline) 104 % of control; (endpoint: median survival time, dose: 18.0 mg/kg/injection, schedule: Q01DX001 (ip), vehicle: saline) 97 % of control.
With `Cc1ccnc(N/C=C/c2cc[n+](C)cc2)c1`, the T/C was 105 % of control under setting [6], 111 % of control under setting [7] and 114 % of control under setting [8].
Regarding `CCOP(=O)(NCCOC)OCC`, the T/C (endpoint: mean survival time, dose: 25.0 mg/kg/injection, schedule: Q01DX009 (ip), vehicle: saline) was 94 % of control; the T/C under setting [4] was 101 % of control; the T/C (endpoint: mean survival time, dose: 50.0 mg/kg/injection, schedule: Q01DX009 (ip), vehicle: saline) is 91 % of control; the T/C (endpoint: mean survival time, dose: 50.0 mg/kg/injection, schedule: Q04DX003 (ip), vehicle: saline with Tween-80) was 94 % of control; the T/C (endpoint: mean survival time, dose: 100.0 mg/kg/injection, schedule: Q01DX009 (ip), vehicle: saline) is 88 % of control; the T/C under setting [9] is 101 % of control.
As to `CCNCc1ccc2c(c1)OCO2`, the T/C was 101 % of control under setting [6], 101 % of control under setting [7] and 103 % of control under setting [8].
Consider `O=C1c2ccccc2C(=O)N1CCCCCCCCCCN1C(=O)c2ccccc2C1=O`, for which the T/C under setting [1] was 92 % of control, the T/C under setting [2] was 89 % of control and the T/C under setting [10] was 93 % of control.
Take `COc1ccc2nc(C(C)O)[nH]c2c1` (stereo not given): the T/C under setting [1] is 89 % of control; the T/C under setting [9] was 103 % of control; the T/C under setting [2] was 93 % of control; the T/C under setting [11] is 101 % of control; the T/C under setting [10] is 89 % of control; the T/C under setting [12] was 96 % of control.
As to `O=C(Nc1ccc(F)cc1)Nc1cccc2ccccc12`, the T/C runs as follows: under setting [9], 96 % of control; under setting [11], 96 % of control; under setting [12], 111 % of control.
As for `COc1cc2ccncc2cc1O`, the T/C was 96 % of control (endpoint: mean survival time, dose: 25.0 mg/kg/injection, schedule: Q01DX009 (ip), vehicle: water) and 96 % of control (endpoint: mean survival time, dose: 50.0 mg/kg/injection, schedule: Q01DX009 (ip), vehicle: water).
For `CC/S(=N\S(=O)(=O)c1ccc(C)cc1)c1ccccc1` (stereo not given), the T/C was 104 % of control under setting [9], 108 % of control under setting [11] and 98 % of control under setting [12].
Take `O=S(=O)(O)c1ccccc1N=Nc1c(S(=O)(=O)O)cc2cc(S(=O)(=O)O)c(N=Nc3ccccc3S(=O)(=O)O)c(O)c2c1O`: the T/C is, setting by setting: under setting [9], 97 % of control; under setting [11], 100 % of control.
As to `O=C(O)CCc1c[nH]c2ccccc12`, the T/C under setting [9] was 98 % of control, the T/C under setting [11] is 102 % of control and the T/C under setting [12] was 108 % of control.
On to `C(=NCc1ccccc1)c1ccccc1-c1ccccc1C=NCc1ccccc1`, for which the T/C under setting [9] was 97 % of control, the T/C under setting [11] is 107 % of control and the T/C under setting [12] is 106 % of control.
Regarding `CCOC(=O)c1c(C)c2c(n1C)CC/C(=C\O)C2=O`, the T/C (endpoint: mean survival time, dose: 25.0 mg/kg/injection, schedule: Q04DX002 (ip), vehicle: other) was 100 % of control; the T/C (endpoint: mean survival time, dose: 50.0 mg/kg/injection, schedule: Q04DX002 (ip), vehicle: other) is 96 % of control; the T/C (endpoint: mean survival time, dose: 100.0 mg/kg/injection, schedule: Q04DX002 (ip), vehicle: other) is 88 % of control and 96 % of control.
`CCCCOc1nc(-c2ccncc2)nc(N(C)C)n1`: the T/C runs as follows: (endpoint: mean survival time, dose: 16.0 mg/kg/injection, schedule: Q04DX002 (ip), vehicle: saline) 92 % of control; (endpoint: mean survival time, dose: 31.0 mg/kg/injection, schedule: Q04DX002 (ip), vehicle: saline) 92 % of control; (endpoint: mean survival time, dose: 63.0 mg/kg/injection, schedule: Q04DX002 (ip), vehicle: saline) 100 % of control; (endpoint: mean survival time, dose: 100.0 mg/kg/injection, schedule: Q01DX002 (ip), vehicle: saline) 100 % of control.
On to `CC(=O)SCCNCC(C)(C)S`, for which the T/C runs as follows: under setting [13], 98 % of control; (endpoint: mean survival time, dose: 200.0 mg/kg/injection, schedule: Q04DX003 (ip), vehicle: saline) 98 % of control; (endpoint: mean survival time, dose: 400.0 mg/kg/injection, schedule: Q04DX003 (ip), vehicle: saline) 95 % of control.
On to `NC(CS)=NCc1ccccc1`, for which the T/C runs as follows: (endpoint: mean survival time, dose: 6.25 mg/kg/injection, schedule: Q04DX002 (ip), vehicle: saline) 108 % of control; (endpoint: mean survival time, dose: 12.5 mg/kg/injection, schedule: Q04DX002 (ip), vehicle: saline) 115 % of control; (endpoint: mean survival time, dose: 25.0 mg/kg/injection, schedule: Q04DX002 (ip), vehicle: saline) 101 % of control.
As for `c1nc(N2CC2)c2cnn(C3CCCCO3)c2n1` (stereo not given), the T/C under setting [5] was 96 % of control; the T/C (endpoint: mean survival time, dose: 50.0 mg/kg/injection, schedule: Q04DX003 (ip), vehicle: saline) was 103 % of control; the T/C under setting [13] was 100 % of control.
Regarding `CCCCOP(=O)(OCCCC)[O][Pb]([CH2]C)([CH2]C)[CH2]C`, the T/C (endpoint: mean survival time, dose: 6.25 mg/kg/injection, schedule: Q04DX003 (ip), vehicle: saline with Tween-80) was 97 % of control and the T/C under setting [3] is 92 % of control.
As for `CC(CNC1CCCCC1)OC(=O)c1ccc(N(C)C)cc1` (stereo not given), the T/C is, setting by setting: under setting [6], 99 % of control; under setting [7], 100 % of control.
